Assay results as given in patent US20080242661A1, “Novel compounds useful for the treatment of degenerative & inflammatory diseases” (priority 2006, published 2008).

molecular target: purified PDE1A enzyme (Homo sapiens, UniProt P54750); test: In vitro PDE1A assay, dose response (Biomol Cyclic Nucleotide Phosphodiesterase Assay Kit, colorimetric); assay type: biochemical; conditions: 100 μM cAMP, 45 min at 37° C., 8 points from 20 μM, duplicate
Source text: For the dose response and further screening, we used the Cyclic Nucleotide Phosphodiesterase Assay Kit from Biomol, a colorimetric, non-radioactive assay. The basis for the assay is the cleavage of cAMP by PDE1A. The 5′AMP is further cleaved into the nucleoside and phosphate by the enzyme 5′-nucleotidase (catnr KI-307). The phosphate released due to enzymatic cleavage is quantified using BIOMOL GREEN™ reagent (catnr AK-111) in a modified Malachite Green assay 1,2. A PDE1A inhibitor will result in a decrease of the signal.
For the enzymatic reaction a mix of 25 μL with purified PDE1A enzyme, 100 μM cAMP, 5′Nucleotidase and the compound is made in a clear 384-plate. The reaction buffer is Tris 20 mM pH 7.4, 4 μg/ml calmodulin, 3 mM MgCl2, 1.5 mM CaCl2, 0.2 mg/mL BSA and 0.001% Brij-35. After an incubation of 45 minutes at 37° C., the reaction is stopped by the addition of 50 μL BIOMOL GREEN™ reagent. After 30 minutes incubation at room temperature, the readout is performed on the Envision (absorption at 615 nm).
All compounds are tested in duplicate starting from 20 μM followed by a ⅓ serial dilution, 8 points (20 μM-6.67 μM-2.22 μM-740 nM-247 nM-82 nM-27 nM-9 nM) in a final concentration of 1% DMSO. As the positive dose response control compound Vardenafil is used. For the calculation of z′ and PIN values 10 μM Vardenafil is used as positive control (100% inhibition) and 1% DMSO as negative control (0% inhibition).
The following compounds have been or can be prepared according to the synthetic methods described above. For the purpose of Table 2 below, activity of each compound, which can be determined using the PDE1A assay method described in above, is expressed as follows: […]

Row | IC50 [nM] | SMILES
1 | < 100 | CCCc1nn(C)c2c(=O)[nH]c(N(C)Cc3ccc(Cl)cc3)nc12 [Example 17, 5-((4-chlorobenzyl)(methyl)amino)-1-methyl-3-propyl-1H-pyrazolo[4,3-d]pyrimidin-7(6H)-one]
2 | > 500 | CCCc1nn(C)c2c(=O)[nH]c(N(C)Cc3cccc(OCCN4CCOCC4)c3)nc12 [Example 48, 1-methyl-5-(methyl(3-(2-morpholinoethoxy)benzyl)amino)-3-propyl-1H-pyrazolo[4,3-d]pyrimidin-7(6H)-one]
3 | 101 to 500 | CCCc1nn(C)c2c(=O)[nH]c(N3CCc4cc(F)ccc4C3)nc12 [Example 34, 5-(6-fluoro-3,4-dihydroisoquinolin-2(1H)-yl)-1-methyl-3-propyl-1H-pyrazolo[4,3-d]pyrimidin-7(6H)-one]
4 | < 100 | CCCc1nn(C)c2c(=O)[nH]c(N(Cc3cccc(-n4cccn4)c3)CC(C)C)nc12 [Example 94]
5 | 101 to 500 | CCCc1nn(C)c2c(=O)[nH]c(NCc3ccc4ccn(C)c4c3)nc12 [Example 69, 1-methyl-5-((1-methyl-1H-indol-6-yl)methylamino)-3-propyl-1H-pyrazolo[4,3-d]pyrimidin-7(6H)-one]
6 | 101 to 500 | Cn1nc(C2CCCC2)c2nc(NCc3ccc(Cl)c(Cl)c3)[nH]c(=O)c21 [Example 76, 3-cyclopentyl-5-(3,4-dichlorobenzylamino)-1-methyl-1H-pyrazolo[4,3-d]pyrimidin-7(6H)-one]
7 | 101 to 500 | CCCc1nn(C)c2c(=O)[nH]c(N(C)Cc3ccc(N4CCCCC4)cc3)nc12 [Example 3, 1-methyl-5-(methyl(4-(piperidin-1-yl)benzyl)amino)-3-propyl-1H-pyrazolo[4,3-d]pyrimidin-7(6H)-one]
8 | 101 to 500 | CCCc1nn(C)c2c(=O)[nH]c(N(C)Cc3cc4cccnc4s3)nc12 [Example 36, 1-methyl-5-(methyl(thieno[2,3-b]pyridin-2-ylmethyl)amino)-3-propyl-1H-pyrazolo[4,3-d]pyrimidin-7(6H)-one]
9 | < 100 | CCCc1nn(C)c2c(=O)[nH]c(N(Cc3cccc(-n4cccc4)c3)CC(C)C)nc12 [Example 101]
10 | 101 to 500 | CCCc1nn(C)c2c(=O)[nH]c(N(C)Cc3cccc(N4CCOCC4)c3)nc12 [Example 10, 1-methyl-5-(methyl(3-morpholinobenzyl)amino)-3-propyl-1H-pyrazolo[4,3-d]pyrimidin-7(6H)-one]
11 | < 100 | CCCc1nn(C)c2c(=O)[nH]c(N(Cc3ccc(F)cc3)CC(C)C)nc12 [Example 98, 5-((4-fluorobenzyl)(isobutyl)amino)-1-methyl-3-propyl-1H-pyrazolo[4,3-d]pyrimidin-7(6H)-one]
12 | < 100 | CCCc1nn(C)c2c(=O)[nH]c(N(C)Cc3sc(-c4ccccc4)nc3C)nc12 [Example 47, 1-methyl-5-(methyl((4-methyl-2-phenylthiazol-5-yl)methyl)amino)-3-propyl-1H-pyrazolo[4,3-d]pyrimidin-7(6H)-one]
13 | 101 to 500 | CCCc1nn(C)c2c(=O)[nH]c(N(C)Cc3cccc(Cl)c3)nc12 [Example 15, 5-((3-chlorobenzyl)(methyl)amino)-1-methyl-3-propyl-1H-pyrazolo[4,3-d]pyrimidin-7(6H)-one]
14 | < 100 | CCCC(C)CN(Cc1cccc(-n2cccn2)c1)c1nc2c(C(C)(C)C)nn(C)c2c(=O)[nH]1 (stereo not drawn) [Example 122]
15 | 101 to 500 | CCCc1nn(C)c2c(=O)[nH]c(NCc3cccc(-n4cccn4)c3)nc12 [Example 63]
16 | < 100 | CCCc1nn(C)c2c(=O)[nH]c(N(C)CCC(C)(C)C)nc12 [Example 110, 5-((3,3-dimethylbutyl)(methyl)amino)-1-methyl-3-propyl-1H-pyrazolo[4,3-d]pyrimidin-7(6H)-one]
17 | 101 to 500 | CCCc1nn(C)c2c(=O)[nH]c(N(CCC)CCc3ccc(Cl)cc3)nc12 [Example 75, 5-((4-chlorophenethyl)(propyl)amino)-1-methyl-3-propyl-1H-pyrazolo[4,3-d]pyrimidin-7(6H)-one]
18 | < 100 | CCCc1nn(C)c2c(=O)[nH]c(N(C)Cc3ccc(F)cc3)nc12 [Example 21, 5-((4-fluorobenzyl)(methyl)amino)-1-methyl-3-propyl-1H-pyrazolo[4,3-d]pyrimidin-7(6H)-one]

Row | IC50 [nM] | SMILES
19 | < 100 | Cn1nc(C(C)(C)C)c2nc(N(CCC(C)(C)C)Cc3cccc(N4CCOCC4)c3)[nH]c(=O)c21 [Example 103, 3-tert-butyl-5-((3,3-dimethylbutyl)(3-morpholinobenzyl)amino)-1-methyl-1H-pyrazolo[4,3-d]pyrimidin-7(6H)-one]
20 | 101 to 500 | CCCc1nn(C)c2c(=O)[nH]c(N(C)Cc3csc(-c4ccc(C(F)(F)F)cc4)n3)nc12 [Example 39, 1-methyl-5-(methyl((2-(4-(trifluoromethyl)phenyl)thiazol-4-yl)methyl)amino)-3-propyl-1H-pyrazolo[4,3-d]pyrimidin-7(6H)-one]
21 | < 100 | CCCc1nn(C)c2c(=O)[nH]c(NCc3cccc(-c4ccn(C)n4)c3)nc12 [Example 67]
22 | 101 to 500 | CCCc1nn(C)c2c(=O)[nH]c(NCCc3ccc(Cl)cc3)nc12 [Example 79, 5-(4-chlorophenethylamino)-1-methyl-3-propyl-1H-pyrazolo[4,3-d]pyrimidin-7(6H)-one]
23 | > 500 | CCCc1nn(C)c2c(=O)[nH]c(N3CCC(C(F)(F)F)CC3)nc12 [Example 60, 1-methyl-3-propyl-5-(4-(trifluoromethyl)piperidin-1-yl)-1H-pyrazolo[4,3-d]pyrimidin-7(6H)-one]
24 | < 100 | CCCc1nn(C)c2c(=O)[nH]c(N(Cc3cccc(-n4cncn4)c3)CC(C)CC)nc12 (stereo not drawn) [Example 116]
25 | 101 to 500 | CCCc1nn(C)c2c(=O)[nH]c(NCc3nnc4ccccn34)nc12 [Example 83, 5-([1,2,4]triazolo[4,3-a]pyridin-3-ylmethylamino)-1-methyl-3-propyl-1H-pyrazolo[4,3-d]pyrimidin-7(6H)-one]
26 | < 100 | CCCc1nn(C)c2c(=O)[nH]c(N(CCC(C)C)Cc3ccc(Cl)c(Cl)c3)nc12 [Example 45, 5-((3,4-dichlorobenzyl)(isopentyl)amino)-1-methyl-3-propyl-1H-pyrazolo[4,3-d]pyrimidin-7(6H)-one]
27 | 101 to 500 | CCCN(CCC)c1nc2c(C3CC3)nn(C)c2c(=O)[nH]1 [Example 125, 3-cyclopropyl-5-(dipropylamino)-1-methyl-1H-pyrazolo[4,3-d]pyrimidin-7(6H)-one]
28 | < 100 | CCCc1nn(C)c2c(=O)[nH]c(N(Cc3cccc(N4CCN(C)CC4)c3)CC(C)C)nc12 [Example 102, 5-(isobutyl(3-(4-methylpiperazin-1-yl)benzyl)amino)-1-methyl-3-propyl-1H-pyrazolo[4,3-d]pyrimidin-7(6H)-one]
29 | < 100 | CN(CCC(C)(C)C)c1nc2c(C(C)(C)C)nn(C)c2c(=O)[nH]1 [Example 111, 3-tert-butyl-5-((3,3-dimethylbutyl)(methyl)amino)-1-methyl-1H-pyrazolo[4,3-d]pyrimidin-7(6H)-one]
30 | 101 to 500 | CCCc1nn(C)c2c(=O)[nH]c(N(C)Cc3cccc(C(F)(F)F)c3)nc12 [Example 5, 1-methyl-5-(methyl(3-(trifluoromethyl)benzyl)amino)-3-propyl-1H-pyrazolo[4,3-d]pyrimidin-7(6H)-one]
31 | 101 to 500 | CCCc1nn(C)c2c(=O)[nH]c(N3CCc4cc(OC)c(OC)cc4C3C)nc12 (stereo not drawn) [Example 37, 5-(6,7-dimethoxy-1-methyl-3,4-dihydroisoquinolin-2(1H)-yl)-1-methyl-3-propyl-1H-pyrazolo[4,3-d]pyrimidin-7(6H)-one]
32 | 101 to 500 | CCCc1nn(C)c2c(=O)[nH]c(N(C)Cc3ccc(-c4ccccn4)cc3)nc12 [Example 44, 1-methyl-5-(methyl(4-(pyridin-2-yl)benzyl)amino)-3-propyl-1H-pyrazolo[4,3-d]pyrimidin-7(6H)-one]
33 | < 100 | CCC(CC)CN(Cc1cccc(N2CCOCC2)c1)c1nc2c(C(C)(C)C)nn(C)c2c(=O)[nH]1 [Example 109, 3-tert-butyl-5-((2-ethylbutyl)(3-morpholinobenzyl)amino)-1-methyl-1H-pyrazolo[4,3-d]pyrimidin-7(6H)-one]
34 | 101 to 500 | CCCc1nn(C)c2c(=O)[nH]c(N(C)CC(C)CCC)nc12 (stereo not drawn) [Example 123, 1-methyl-5-(methyl(2-methylpentyl)amino)-3-propyl-1H-pyrazolo[4,3-d]pyrimidin-7(6H)-one]
35 | < 100 | CCCc1nn(C)c2c(=O)[nH]c(N(Cc3cccc(N4CCOCC4)c3)CC(C)CCC)nc12 (stereo not drawn) [Example 113, 1-methyl-5-((2-methylpentyl)(3-morpholinobenzyl)amino)-3-propyl-1H-pyrazolo[4,3-d]pyrimidin-7(6H)-one]
36 | > 500 | CCCc1nn(C)c2c(=O)[nH]c(NCc3cccc(CN4CCOCC4)c3)nc12 [Example 53, 1-methyl-5-(3-(morpholinomethyl)benzylamino)-3-propyl-1H-pyrazolo[4,3-d]pyrimidin-7(6H)-one]
